Experiments:
isolated mouse hearts = assay: Effect on isolated hearts according to the Langendorff method (Lgdff)
Method: Effect on Isolated Hearts According to the Langendorff Method (Lgdff)
The compounds were tested for their potential to reduce blood pressure and their effect on the contractility of the heart muscle. EC50 values on isolated mouse hearts were determined according to Literature (Doring H J., The isolated perfused heart according to Langendorff technique—function—application, Physiol. Bohemoslov. 1990, 39(6), 481-504; Kligfield P, Horner H, Brachfeld N., A model of graded ischemia in the isolated perfused rat heart, J. Appl. Physiol. 1976 June, 40(6), 1004-8).
51 example compounds have been measured using the procedure described above for the Langendorff experiment. The measured EC50 values were in the range of 4 to 669 nM with an average of 37 nM.

[1] = system: human Cav3.1 Cav3.2 or Cav3.3 channel; assay: In vitro assay T channel (FLIPR calcium fluorescence); type: cell-based; settings: HEK293 cells expressing human Cav3.1, Cav3.2 or Cav3.3; 10 mM Ca2+-induced fluo-4 fluorescence; determined up to 10 μM; read-out: T channel antagonistic activity IC50
How it was run: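 HEK293 cells stably expressing human Cav3.1, Cav3.2 or Cav3.3 loaded with fluo-4 AM (3 μM), preincubated 3 min with antagonist, then stimulated with 10 mM Ca2+ in TEA-chloride/HEPES buffer pH 7.2. FLIPR fluorescence read every 2 s for 8 min; IC50 from peak area versus vehicle, tested up to 10 μM.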

human Cav1.2 channel = target: T1, human Cav1.2 channel (Homo sapiens, UniProt Q13936); assay: In vitro assay L channel (FLIPR calcium fluorescence); type: cell-based; settings: HEK293 cells expressing human Cav1.2 with β-2a and α2δ-1; 20 mM KCl-induced fluo-4 fluorescence; determined up to 10 μM; read-out: L channel antagonistic activity (IC50)
T1 construct: expressed in transfected cells; host or cells: HEK293
T1 sequence (Q13936 whole entry): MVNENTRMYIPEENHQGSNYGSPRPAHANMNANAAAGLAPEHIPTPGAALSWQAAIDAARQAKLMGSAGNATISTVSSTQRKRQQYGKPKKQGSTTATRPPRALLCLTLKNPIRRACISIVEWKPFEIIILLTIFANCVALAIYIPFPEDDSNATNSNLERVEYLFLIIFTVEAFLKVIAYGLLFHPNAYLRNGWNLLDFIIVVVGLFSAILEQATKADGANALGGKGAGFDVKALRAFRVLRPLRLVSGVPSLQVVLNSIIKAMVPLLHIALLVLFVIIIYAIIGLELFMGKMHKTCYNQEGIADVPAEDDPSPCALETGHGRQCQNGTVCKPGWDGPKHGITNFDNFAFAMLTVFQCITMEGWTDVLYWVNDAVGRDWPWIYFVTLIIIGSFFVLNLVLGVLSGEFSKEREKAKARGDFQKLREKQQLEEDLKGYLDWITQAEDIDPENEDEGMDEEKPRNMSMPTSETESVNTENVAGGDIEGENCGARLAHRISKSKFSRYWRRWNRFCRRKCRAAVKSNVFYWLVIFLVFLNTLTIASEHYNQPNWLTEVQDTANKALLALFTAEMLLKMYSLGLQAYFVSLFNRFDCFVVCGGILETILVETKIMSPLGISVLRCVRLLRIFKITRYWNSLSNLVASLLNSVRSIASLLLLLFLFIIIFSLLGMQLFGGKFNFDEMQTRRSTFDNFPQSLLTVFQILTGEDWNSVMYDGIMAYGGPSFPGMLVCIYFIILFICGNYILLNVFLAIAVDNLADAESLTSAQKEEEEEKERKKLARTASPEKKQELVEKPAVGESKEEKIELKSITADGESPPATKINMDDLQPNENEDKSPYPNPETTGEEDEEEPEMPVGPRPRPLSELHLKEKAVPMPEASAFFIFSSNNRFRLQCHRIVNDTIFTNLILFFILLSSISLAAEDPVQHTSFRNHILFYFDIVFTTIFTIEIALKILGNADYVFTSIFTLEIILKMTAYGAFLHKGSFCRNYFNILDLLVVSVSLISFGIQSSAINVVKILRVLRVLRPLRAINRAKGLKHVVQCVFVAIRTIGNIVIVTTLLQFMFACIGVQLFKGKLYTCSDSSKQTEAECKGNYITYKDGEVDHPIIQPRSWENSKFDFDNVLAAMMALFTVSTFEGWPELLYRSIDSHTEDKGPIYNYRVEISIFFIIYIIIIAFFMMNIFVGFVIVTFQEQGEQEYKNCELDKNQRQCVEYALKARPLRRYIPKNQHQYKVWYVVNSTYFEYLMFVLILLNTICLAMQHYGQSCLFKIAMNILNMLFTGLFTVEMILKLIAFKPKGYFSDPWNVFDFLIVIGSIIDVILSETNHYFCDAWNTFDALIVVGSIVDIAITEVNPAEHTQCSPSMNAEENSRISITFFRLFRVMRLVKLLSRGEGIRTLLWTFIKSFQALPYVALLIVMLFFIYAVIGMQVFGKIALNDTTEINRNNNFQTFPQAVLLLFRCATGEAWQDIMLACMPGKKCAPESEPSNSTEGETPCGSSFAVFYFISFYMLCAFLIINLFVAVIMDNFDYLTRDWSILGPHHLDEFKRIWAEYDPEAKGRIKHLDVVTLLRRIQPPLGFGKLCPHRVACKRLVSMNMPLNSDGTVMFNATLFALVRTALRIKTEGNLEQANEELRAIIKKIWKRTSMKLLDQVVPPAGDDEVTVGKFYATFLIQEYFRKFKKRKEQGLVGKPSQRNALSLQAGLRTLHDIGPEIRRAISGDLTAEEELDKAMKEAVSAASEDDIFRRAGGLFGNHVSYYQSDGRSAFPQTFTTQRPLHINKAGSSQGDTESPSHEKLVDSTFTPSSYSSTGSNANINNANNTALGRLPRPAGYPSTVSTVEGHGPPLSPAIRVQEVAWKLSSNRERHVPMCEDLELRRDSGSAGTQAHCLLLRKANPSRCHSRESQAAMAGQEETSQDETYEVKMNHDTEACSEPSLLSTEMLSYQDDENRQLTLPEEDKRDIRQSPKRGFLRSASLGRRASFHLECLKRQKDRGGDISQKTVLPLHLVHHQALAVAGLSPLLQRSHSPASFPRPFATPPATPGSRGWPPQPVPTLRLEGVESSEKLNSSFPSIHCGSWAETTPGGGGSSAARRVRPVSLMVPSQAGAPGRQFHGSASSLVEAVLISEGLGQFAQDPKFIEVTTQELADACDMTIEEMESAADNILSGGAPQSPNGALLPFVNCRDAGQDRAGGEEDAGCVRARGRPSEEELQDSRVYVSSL
Method: The L channel antagonistic activity (IC50 values) of the compounds of formula (I) is determined in accordance with the following experimental method.
Human embryonic kidney (HEK293) cells expressing the human Cav1.2 channel in addition to the auxiliary subunits β-2a and α2δ-1, are grown in culture medium (DMEM containing 10% heat-inactivated fetal calf serum (FCS), 100 U/ml penicillin, 100 μg/ml streptomycin, 100 μg/ml G418, 40 μg/ml zeocin and 100 μg/ml hygromycin). The cells are seeded at 20.000 cells/well into 384-well black clear bottom sterile plates (poly-L-lysine-coated, Becton Dickinson). The seeded plates are incubated overnight at 37° C. in 5% CO2. The KCl solution is prepared as 80 mM stock solution in assay buffer (HBSS containing 0.1% BSA, 20 mM HEPES, 0.375 g/l NaHCO3, adjusted to pH 7.4 with NaOH) for use in the assay at a final concentration of 20 mM. Antagonists are prepared as 10 mM stock solutions in DMSO, then diluted in 384 w plates first in DMSO, then in assay buffer to obtain 3× stocks. On the day of the assay, 25 μl of staining buffer (HBSS containing 20 mM HEPES, 0.375 g/l NaHCO3, and 3 μM of the fluorescent calcium indicator fluo-4 AM (1 mM stock solution in DMSO, containing 10% pluronic) is added to each well of the seeded plate. The 384-well cell-plates are incubated for 60 min at 37° C. in 5% CO2 followed by washing with 2×50 μl per well using assay buffer leaving 50 μl/well of this buffer for equilibration at room temperature (30-60 min). Within the Fluorescent Imaging Plate Reader (FLIPR, Molecular Devices), antagonists are added to the plate in a volume of 25 μl/well, incubated for 3 min and finally 25 μl/well of KCl solution is added for cellular depolarization. Fluorescence is measured for each well at 2 second intervals for 8 minutes, and the area under the curve of each fluorescence peak is compared to the area of the fluorescence peak induced by 20 mM KCl with vehicle in place of antagonist. […]

Row | Compound | EC50 (isolated mouse hearts) | IC50 [1] | IC50 (human Cav1.2 channel)
1 | CC(C)C(=O)O[C@@]1(CCN(C)CCCc2nc3ccccc3[nH]2)C[C@H]2CC[C@@H]1C=C2c1cccs1 (relative stereo) [Example 21A, rac-Isobutyric acid (1R*,2R*,4R*)-2-(2-{[3-(1H-benzoimidazol-2-yl)-propyl]-methyl-amino}-ethyl)-5-thiophen-2-yl-bicyclo[2.2.2]oct-5-en-2-yl ester] | 10 nM | 2420 nM | 
2 | CC1=C(c2ccccc2)[C@H]2CC[C@@H]1C[C@]2(CCN(C)CCCc1nc2ccccc2[nH]1)OC(=O)C(C)C (relative stereo) [Example 17A, rac-Isobutyric acid (1R*,2R*,4R*)-2-(2-{[3-(1H-benzoimidazol-2-yl)-propyl]-methyl-amino}-ethyl)-5-methyl-6-phenyl-bicyclo[2.2.2]oct-5-en-2-yl ester] | 12 nM | 1370 nM | 
3 | CC(C)C(=O)O[C@@]1(CCN(C)CCCc2cccnc2)C[C@H]2CC[C@@H]1C=C2c1ccccc1 (relative stereo) [Example 46A, rac-Isobutyric acid (1R*,2R*,4R*)-2-{2-[methyl-(3-pyridin-3-yl-propyl)-amino]-ethyl}-5-phenyl-bicyclo[2.2.2]oct-5-en-2-yl ester] | 9 nM | 2560 nM | 
4 | CC(C)C(=O)O[C@@]1(CCN(C)CCCc2nc3ccccc3[nH]2)C[C@H]2CC[C@@H]1C=C2c1ccc2ccccc2c1 (racemic) [Example 10A, rac-Isobutyric acid (1R*,2R*,4R*)-2-(2-{[3-(1H-benzoimidazol-2-yl)-propyl]-methyl-amino}-ethyl)-5-naphthalen-2-yl-bicyclo[2.2.2]oct-5-en-2-yl ester] | 13 nM | > 10000 nM | > 10000 nM
5 | CN(CCCc1nc2ccccc2[nH]1)CC[C@]1(O)C[C@@H]2C=C[C@H]1CC2 (racemic) [Example 75, rac-(1R*,2R*,4R*)-2-(2-{[3-(1H-Benzoimidazol-2-yl)-propyl]-methyl-amino}-ethyl)-bicyclo[2.2.2]oct-5-en-2-ol] |  | > 10000 nM | > 10000 nM
6 | COCC(C)(COC)C(=O)NCCCN(C)CC[C@]1(O)C[C@H]2CC[C@@H]1C=C2c1ccccc1 (relative stereo) [Example 43, rac-N-(3-{[2-((1R*,2R*,4R*)-2-Hydroxy-5-phenyl-bicyclo[2.2.2]oct-5-en-2-yl)-ethyl]-methyl-amino}-propyl)-3-methoxy-2-methoxymethyl-2-methyl-propionamide] |  | > 10000 nM | 

The next lines start with results.

Row | EC50 (isolated mouse hearts) | IC50 [1] | Compound | IC50 (human Cav1.2 channel)
7 | 15 nM | 2310 nM | COc1cccc(C2=C[C@H]3CC[C@@H]2C[C@]3(CCN(C)CCCc2nc3ccccc3[nH]2)OC(=O)C(C)C)c1 (relative stereo) [Example 2A, rac-Isobutyric acid (1R*,2R*,4R*)-2-(2-{[3-(1H-benzoimidazol-2-yl)-propyl]-methyl-amino}-ethyl)-5-(3-methoxy-phenyl)-bicyclo[2.2.2]oct-5-en-2-yl ester] | 
8 |  | > 10000 nM | CN(CCCc1nc2ccccc2[nH]1)CC[C@]1(O)C[C@H]2CC[C@@H]1C=C2c1ncco1 (racemic) [Example 25, rac-(1R*,2R*,4R*)-2-(2-{[3-(1H-Benzoimidazol-2-yl)-propyl]-methyl-amino}-ethyl)-5-oxazol-2-yl-bicyclo[2.2.2]oct-5-en-2-ol] | > 10000 nM
9 | 4 nM | 4640 nM | COc1cccc2[nH]c(CCCN(C)CC[C@]3(OC(=O)CC(F)(F)F)C[C@H]4CC[C@@H]3C=C4c3ccccc3)nc12 (relative stereo) [Example 26C, rac-3,3,3-Trifluoro-propionic acid (1R*,2R*,4R*)-2-(2-{[3-(4-methoxy-1H-benzoimidazol-2-yl)-propyl]-methyl-amino}-ethyl)-5-phenyl-bicyclo[2.2.2]oct-5-en-2-yl ester] | 
10 | 5 nM | 571 nM | COc1ccc(OC)c2[nH]c(CCCN(C)CC[C@]3(OC(=O)C(C)C)C[C@H]4CC[C@@H]3C=C4c3ccccc3)nc12 (relative stereo) [Example 61A, rac-Isobutyric acid (1R*,2R*,4R*)-2-(2-{[3-(4,7-dimethoxy-1H-benzoimidazol-2-yl)-propyl]-methyl-amino}-ethyl)-5-phenyl-bicyclo[2.2.2]oct-5-en-2-yl ester] | 
11 |  | 2560 nM | CN(CCCc1nc2cccc(O)c2[nH]1)CC[C@]1(O)C[C@H]2CC[C@@H]1C=C2c1ccccc1 (relative stereo) [Example 34, rac-(1R*,2R*,4R*)-2-(3-{[2-(2-Hydroxy-5-phenyl-bicyclo[2.2.2]oct-5-en-2-yl)-ethyl]-methyl-amino}-propyl)-3H-benzoimidazol-4-ol] | 
